± gives the standard deviation of the averaged measurements.
What was measured:
CELECOXIB = compound: Cc1ccc(-c2cc(C(F)(F)F)nn2-c2ccc(S(N)(=O)=O)cc2)cc1 [CELECOXIB]; assay: surviving fraction relative to DMSO-only wells; higher = less growth inhibition; conditions: exposure time: 5 days
Summary of the method: (§1)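 In 384-well plates, 250–500 log-phase tumour cells per well were given 24 hours before five days of continuous exposure to inhibitors at 0.5, 1, 5, 10, 50, 100, 500 and 1000 nM. Surviving fraction is luminescence from CellTiter-Glo, normalised to the median of wells containing DMSO alone. Reading took place after 10 minutes at room temperature.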

GEFITINIB = compound: COc1cc2ncnc(Nc3ccc(F)c(Cl)c3)c2cc1OCCCN1CCOCC1 [GEFITINIB]; assay: as above; conditions: exposure time: 5 days
Summary of the method: as §1

Test System	surviving fraction (CELECOXIB; 0.5 nM)	surviving fraction (CELECOXIB; 1 nM)	surviving fraction (CELECOXIB; 5 nM)	surviving fraction (CELECOXIB; 10 nM)	surviving fraction (CELECOXIB; 50 nM)	surviving fraction (CELECOXIB; 100 nM)	surviving fraction (CELECOXIB; 500 nM)	surviving fraction (CELECOXIB; 1000 nM)	surviving fraction (GEFITINIB; 0.5 nM)	surviving fraction (GEFITINIB; 1 nM)	surviving fraction (GEFITINIB; 5 nM)	surviving fraction (GEFITINIB; 10 nM)	surviving fraction (GEFITINIB; 50 nM)	surviving fraction (GEFITINIB; 100 nM)	surviving fraction (GEFITINIB; 500 nM)	surviving fraction (GEFITINIB; 1000 nM)
HCC78 LUNG	0.815 ± 0.2	0.894 ± 0.038	0.89 ± 0.28	1.05 ± 0.18	0.886 ± 0.14	1.05 ± 0.082	0.973 ± 0.09	0.801 ± 0.028	1.03 ± 0.2	0.938 ± 0.12	1.01 ± 0.1	0.994 ± 0.12	0.967 ± 0.12	0.963 ± 0.067	0.711 ± 0.23	0.668 ± 0.19
HCC1395 BREAST	1.17 ± 0.084	1.2 ± 0.13	1.32 ± 0.041	1.26 ± 0.053	1.27 ± 0.038	1.22 ± 0.041	1.25 ± 0.053	1.21 ± 0.037	1.07 ± 0.057	1.07 ± 0.035	1.18 ± 0.12	1.22 ± 0.17	1.24 ± 0.059	1.21 ± 0.045	1.2 ± 0.085	1.11 ± 0.039
HCC1806 BREAST	1.08 ± 0.049	1.01 ± 0.16	1.11 ± 0.084	1.1 ± 0.18	1.11 ± 0.039	1.25 ± 0.09	1.09 ± 0.059	1.08 ± 0.077	1.02 ± 0.11	1.08 ± 0.11	1.19 ± 0.1	1.2 ± 0.11	1.04 ± 0.14	0.925 ± 0.098	0.62 ± 0.069	0.61 ± 0.01
HCC1954 BREAST	1.05 ± 0.12	1.07 ± 0.076	1.39 ± 0.077	1.27 ± 0.065	1.11 ± 0.033	0.959 ± 0.038	1.08 ± 0.024	0.859 ± 0.088	1.25 ± 0.17	1.25 ± 0.25	1.01 ± 0.029	1.2 ± 0.13	0.855 ± 0.011	0.702 ± 0.0081	0.459 ± 0.064	0.408 ± 0.016
HCT15 LARGE INTESTINE	1.02 ± 0.062	1.03 ± 0.031	1.06 ± 0.039	1.04 ± 0.022	1.07 ± 0.061	1.07 ± 0.077	1.09 ± 0.053	1.1 ± 0.044	1.05 ± 0.033	1.04 ± 0.017	0.982 ± 0.025	1.04 ± 0.054	1.07 ± 0.04	1.046 ± 0.0061	1.04 ± 0.039	1.07 ± 0.052
HELA CERVIX	1.09 ± 0.049	1.11 ± 0.047	1.05 ± 0.058	1.05 ± 0.039	1.09 ± 0.018	1.16 ± 0.044	1.14 ± 0.033	1.13 ± 0.049	1.07 ± 0.044	1.05 ± 0.019	1.106 ± 0.0031	1.06 ± 0.033	1.15 ± 0.029	1.14 ± 0.022	1.18 ± 0.065	1.14 ± 0.058
HMLE3 BREAST	1.08 ± 0.07	1.06 ± 0.032	1.08 ± 0.1	1.06 ± 0.025	1.04 ± 0.15	1.09 ± 0.076	1.1 ± 0.061	1.03 ± 0.17	1.11 ± 0.075	1.03 ± 0.016	1.07 ± 0.016	1.08 ± 0.031	1.04 ± 0.051	0.963 ± 0.07	0.904 ± 0.1	0.843 ± 0.083
HMT3552 BREAST	1.07 ± 0.057	1.07 ± 0.07	1.09 ± 0.026	1.11 ± 0.038	1.16 ± 0.019	1.18 ± 0.062	1.19 ± 0.078	1.27 ± 0.041	0.987 ± 0.065	1 ± 0.052	0.97 ± 0.038	0.952 ± 0.018	0.946 ± 0.048	0.94 ± 0.036	0.94 ± 0.017	0.856 ± 0.043
HOSMNG BONE	0.941 ± 0.06	0.968 ± 0.093	0.923 ± 0.047	0.879 ± 0.11	1.01 ± 0.059	1.08 ± 0.098	1.05 ± 0.13	1.02 ± 0.072	1.01 ± 0.035	0.993 ± 0.0089	0.971 ± 0.092	1.03 ± 0.073	1.05 ± 0.085	1.14 ± 0.026	1.09 ± 0.091	1.07 ± 0.021
HS57T BREAST	1.028 ± 0.0046	1.04 ± 0.052	1.06 ± 0.022	1.09 ± 0.08	1.04 ± 0.06	1.09 ± 0.04	1.02 ± 0.055	0.867 ± 0.021	0.973 ± 0.033	0.994 ± 0.088	1.01 ± 0.024	1.02 ± 0.05	1.05 ± 0.059	1.02 ± 0.061	1.01 ± 0.065	0.9383 ± 0.0032
HS578T BREAST	0.9 ± 0.013	0.892 ± 0.26	0.942 ± 0.14	0.942 ± 0.093	0.923 ± 0.12	1.11 ± 0.17	0.961 ± 0.083	0.969 ± 0.1	0.972 ± 0.039	0.906 ± 0.078	0.965 ± 0.095	0.878 ± 0.12	0.996 ± 0.13	0.819 ± 0.075	1.07 ± 0.1	0.899 ± 0.23
HSSYII SYNOVIAL	1.04 ± 0.019	1.01 ± 0.014	0.979 ± 0.07	1.08 ± 0.028	1.02 ± 0.046	1.039 ± 0.0068	1.01 ± 0.066	1.04 ± 0.036	1.04 ± 0.026	0.9723 ± 0.0083	1.05 ± 0.022	1.03 ± 0.047	1.03 ± 0.017	1.03 ± 0.067	0.995 ± 0.051	0.98 ± 0.065
HU09 BONE	1 ± 0.092	0.961 ± 0.061	1.08 ± 0.027	1.03 ± 0.13	1.04 ± 0.05	–	0.952 ± 0.18	0.846 ± 0.02	0.997 ± 0.069	0.921 ± 0.055	0.972 ± 0.023	1.02 ± 0.079	1.1 ± 0.018	1.09 ± 0.075	1.1 ± 0.16	0.952 ± 0.1
JIMT1 BREAST	1.04 ± 0.039	1.04 ± 0.023	1.06 ± 0.039	1.08 ± 0.051	1.04 ± 0.021	1.08 ± 0.015	1.08 ± 0.062	1.07 ± 0.024	1.02 ± 0.051	1.02 ± 0.016	1.03 ± 0.028	1.02 ± 0.022	1.06 ± 0.027	1.03 ± 0.046	0.811 ± 0.043	0.773 ± 0.047
JURKAT HAEMATOPOIETIC AND LYMPHOID TISSUE	1.03 ± 0.036	1.05 ± 0.032	1.03 ± 0.017	1.05 ± 0.029	0.986 ± 0.034	1 ± 0.03	1.03 ± 0.013	0.975 ± 0.035	1.07 ± 0.016	1.09 ± 0.041	1.062 ± 0.0078	1.07 ± 0.021	1.05 ± 0.028	1.03 ± 0.025	1.02 ± 0.018	1.016 ± 0.0051
KPD BONE	1.04 ± 0.1	1.01 ± 0.054	1.11 ± 0.065	1.07 ± 0.029	1.05 ± 0.04	1.07 ± 0.12	1.05 ± 0.012	0.934 ± 0.043	0.994 ± 0.06	1.01 ± 0.04	0.84 ± 0.36	0.81 ± 0.34	1.06 ± 0.1	1.04 ± 0.076	0.952 ± 0.04	0.934 ± 0.029
LM7 BONE	0.979 ± 0.059	0.963 ± 0.023	1.06 ± 0.05	1.1 ± 0.086	1.04 ± 0.038	1.04 ± 0.023	0.944 ± 0.044	1.02 ± 0.068	0.988 ± 0.039	1.01 ± 0.034	1.1 ± 0.07	1.1 ± 0.036	1.12 ± 0.013	1.12 ± 0.1	0.963 ± 0.054	0.825 ± 0.016
LNCAP PROSTATE	1.02 ± 0.042	0.956 ± 0.067	0.986 ± 0.057	1.01 ± 0.081	0.919 ± 0.012	0.998 ± 0.083	0.885 ± 0.057	0.94 ± 0.065	1.1 ± 0.22	0.915 ± 0.067	0.9827 ± 0.0059	0.998 ± 0.043	0.939 ± 0.032	0.947 ± 0.03	1.03 ± 0.08	0.947 ± 0.12
MCF7 BREAST	0.933 ± 0.053	0.922 ± 0.05	0.938 ± 0.013	0.927 ± 0.035	0.937 ± 0.042	0.942 ± 0.093	1 ± 0.011	1.01 ± 0.033	0.935 ± 0.02	0.921 ± 0.032	0.924 ± 0.042	0.935 ± 0.023	0.965 ± 0.017	0.951 ± 0.046	0.979 ± 0.02	0.964 ± 0.027
MDAMB134 BREAST	0.969 ± 0.016	0.898 ± 0.054	0.881 ± 0.084	0.913 ± 0.083	1.18 ± 0.2	1.18 ± 0.12	0.984 ± 0.095	0.978 ± 0.085	0.881 ± 0.014	0.974 ± 0.067	0.775 ± 0.21	0.873 ± 0.0099	1.2 ± 0.2	1.13 ± 0.023	1 ± 0.067	1.1 ± 0.064
MDAMB361 BREAST	0.857 ± 0.13	0.895 ± 0.013	0.897 ± 0.12	0.896 ± 0.081	0.857 ± 0.17	0.89 ± 0.21	0.909 ± 0.091	0.968 ± 0.17	0.861 ± 0.02	0.851 ± 0.071	0.908 ± 0.025	1 ± 0.042	0.89 ± 0.14	0.859 ± 0.15	0.834 ± 0.092	0.834 ± 0.13

— the supplement of paper PMC6045584
